Experimental data published in US5252482A, “Precursor of a C-terminal amidated calcitonin” (Suntory Limited, priority 1982, dated 1993).
Bridge positions count the residues as written; N and C are the ends. Peptide text beside a SMILES is read from it.

System: Male Wistar strain rats
Test: serum calcium lowering effect in rats
Format: in vivo, rat
Settings: for Change in serum Ca level: 4.5 μg/rat subcutaneously, mean of 4 rats
Method: The biological activities of HPCT and HPCT Cp(1-3S purified by the above-mentioned procedure were assayed using the serum calcium lowering effect in rats as an indicator.
Male Wistar strain rats weighing 300 to 350 grams were fasted overnight and used. Each animal was secured in supine position and under ether anesthesia, a polyethylene tube (Intramedic® PE-50, Clay Adams) filled with heparin sodium injection J. P. (Japan-Upjohn) was inserted into the femoral artery of the right hind leg. The rat was fixed in a Boleman cage, and 30 minutes after awakening of the animal, 0.5 ml of the blood was withdrawn through the above polyethylene tube inserted into the femoral artery into a polyethylene centrifugal tube containing 50 units of heparin sodium. Immediately thereafter 0.2 ml of the under-mentioned physiological saline, HPCT. HPCT.Cp(1-33) or swine calcitonin solution was administered subcutaneously at the back of the animal. Then, 1, 2, 4 and 6 hours after the administration, 0.5 ml each of the blood was taken through the above-mentioned polyethylene tube. The blood thus taken was promptly centrifuged on an Eppendorf microcentrifuge (Eppendorf 5414) at 13,000 r.p.m. for 1 minute and the supernatant was used as serum fraction.
The blood calcium level was measured by the o-cresolphthalein complexon method using a commercial calcium assay kit RM117-K (Ca SET) (Yatron). Fifty μl of the serum was taken in a test tube and stirred with 0.5 ml of the color reagent containing o-cresolphthalein complexon and 8-hydroxyquinoline (RM117-2). Then, 5.0 ml of monoethanolamine borate buffer (RM117-1) was added and stirred. Within 90 minutes thereafter, the absorbance was measured with a self-recording spectrophotometer (Hitachi 320) at the wavelength of 575 mu. The concentration of calcium was calculated from this absorbance value.
The methods used in the preparation of the physiological saline solution, HPCT solution, HPCT. Cp(1-3S) solution and swine calcitonin solution employed are as follows.
a) Physiological saline solution: Bovine serum albumin (Sigma®) was dissolved in physiological saline J. P. (Ohtsuka Pharmaceutical Co.) at room temperature to the albumin concentration of 0.1%.
b) HPCT solution: HPCT was diluted with the above-mentioned physiological saline solution containing 0.1% of albumin to the HPCT concentration of 4.5 μg/0.2 ml.
c) HPCT Cp(1-33) solution: HPCT Cp(1-33) was diluted with the above-mentioned physiological saline solution containing 0.1% of albumine to the HPCT Cp(1-33) concentration of 20 μg/0.2 ml.
d) Swine calcitonin solution: Calcital® for Injection (Yamanouchi Pharmaceutical Co.) containing 160 I.U. of calcitonin per vial was dissolved in 40 ml of a vehicle containing 16% of purified gelatin and 0.5% phenol J. P. and the solution was diluted with the above-mentioned physiological saline solution containing 0.1% of albumin. This dilution contained 0.2 or 1 I.U. of swine calcitonin per 0.2 ml.

In the case of `CC[C@H](C)[C@H](NC(=O)[C@H](C)NC(=O)[C@@H](NC(=O)[C@H](CCC(N)=O)NC(=O)[C@@H]1CCCN1C(=O)[C@H](Cc1ccccc1)NC(=O)[C@@H](NC(=O)[C@H](Cc1c[nH]cn1)NC(=O)[C@H](Cc1ccccc1)NC(=O)[C@H](CCCCN)NC(=O)[C@H](CC(N)=O)NC(=O)[C@H](Cc1ccccc1)NC(=O)[C@H](CC(=O)O)NC(=O)[C@H](CCC(N)=O)NC(=O)[C@@H](NC(=O)[C@H](Cc1ccc(O)cc1)NC(=O)[C@@H](NC(=O)CNC(=O)[C@H](CC(C)C)NC(=O)[C@@H](NC(=O)[C@@H]1CSSC[C@H](N)C(=O)NCC(=O)N[C@@H](CC(N)=O)C(=O)N[C@@H](CC(C)C)C(=O)N[C@@H](CO)C(=O)N[C@@H]([C@@H](C)O)C(=O)N1)C(C)C)[C@@H](C)O)[C@@H](C)O)[C@@H](C)O)[C@@H](C)O)C(=O)NCC(=O)N[C@H](C(=O)NCC(=O)N[C@@H](C)C(=O)N1CCC[C@H]1C(=O)NCC(=O)N[C@@H](CCCCN)C(=O)N[C@@H](CCCCN)C(=O)N[C@@H](CCCNC(=N)N)C(=O)O)C(C)C` [HPCT] (H-CGNLSTCVLGTYTQDFNKFHTFPQTAIGVGAPGKKR-OH; disulfide 1-7), the “activity equivalent in swine calcitonin” value (4.5 μg of HPCT, rat, subcutaneous, serum calcium time course) is reported as 0.2 I.U, the calcitonin activity (calcium level in the rat blood) is reported as “markedly reducing the calcium level in the rat blood” and the “physiological activity compared with swine calcitonin” value (rat serum calcium, Table 2, not compared in an equal amount) is reported as “stronger physiological activity as compared with swine calcitonin”. The serum calcium level (rat, 4.5 μg subcutaneously, 1 and 2 hours after the administration) was “dropped with statistical significance”, the “Change in serum Ca level” value (rat, 1 hour after administration) was -0.85 mg/dL and the “Change in serum Ca level” value (rat, 2 hours) was -0.64 mg/dL. The “Change in serum Ca level” value (rat, 3 hours) was -0.47 mg/dL and the “Change in serum Ca level” value (rat, 4 hours) was -0.63 mg/dL.
